Measurements published in PubChem BioAssay (NCI).
Several values for one entry are separate records, joined by “and”; a condition that tells them apart may be missing. Equal entries are not always repeated.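 In this assay, cells in 96-well plates receive the compound at five concentrations for 48 hours. Endpoints are linearly interpolated between the surrounding concentrations. TGI denotes the concentration required for complete inhibition of growth.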

Assays:
Test in all cases: growth of human tumour cells (NCI), 48 h
LOX IMVI melanoma = test system: LOX IMVI melanoma
OVCAR-4 ovarian = test system: OVCAR-4 ovarian
NCI-H460 lung = test system: NCI-H460 lung
BT-549 breast = test system: BT-549 breast
NCI-H226 lung = test system: NCI-H226 lung
OVCAR-3 ovarian = test system: OVCAR-3 ovarian
K-562 leukemia = test system: K-562 leukemia
IGROV1 ovarian = test system: IGROV1 ovarian
MOLT-4 leukemia = test system: MOLT-4 leukemia
UACC-62 melanoma = test system: UACC-62 melanoma
MDA-N = test system: MDA-N
SNB-19 CNS = test system: SNB-19 CNS
NCI/ADR-RES ovarian = test system: NCI/ADR-RES ovarian
SK-OV-3 ovarian = test system: SK-OV-3 ovarian
786-0 renal = test system: 786-0 renal
RPMI-8226 leukemia = test system: RPMI-8226 leukemia
RXF 393 renal = test system: RXF 393 renal
TK-10 renal = test system: TK-10 renal
HL-60(TB) leukemia = test system: HL-60(TB) leukemia
SF-539 CNS = test system: SF-539 CNS

| SMILES | TGI (LOX IMVI melanoma) [µM] | TGI (OVCAR-4 ovarian) [µM] | TGI (NCI-H460 lung) [µM] | TGI (BT-549 breast) [µM] | TGI (NCI-H226 lung) [µM] | TGI (OVCAR-3 ovarian) [µM] | TGI (K-562 leukemia) [µM] | TGI (IGROV1 ovarian) [µM] | TGI (MOLT-4 leukemia) [µM] | TGI (UACC-62 melanoma) [µM] | TGI (MDA-N) [µM] | TGI (SNB-19 CNS) | TGI (NCI/ADR-RES ovarian) [µM] | TGI (SK-OV-3 ovarian) | TGI (786-0 renal) [µM] | TGI (RPMI-8226 leukemia) [µM] | TGI (RXF 393 renal) [µM] | TGI (TK-10 renal) [µM] | TGI (HL-60(TB) leukemia) [µM] | TGI (SF-539 CNS) [µM] |
| --- | --- | --- | --- | --- | --- | --- | --- | --- | --- | --- | --- | --- | --- | --- | --- | --- | --- | --- | --- | --- |
| CSc1c(C#N)c2n(c3ccccc3[n+]2C)c2ncccc12 | 34.1 | 91.1 | > 100 | 70.5 | 49.9 | 71.7 | > 100 | > 100 | > 100 | 38.9 | 58.6 | > 100 µM | 85.5 | > 100 µM | 50.3 | > 100 | 37.2 | – | – | – |
| Cc1n[nH]c(=O)n1N=C(c1ccccc1)c1ccccc1 | > 100 | > 100 | > 100 | > 100 | > 100 | > 100 | > 100 | > 100 | > 100 | > 100 | > 100 | > 100 µM | > 100 | – | > 100 | > 100 | > 100 | > 100 | – | – |
| CC1(C)CC(=O)c2c(nc3ccc4ccccc4c3c2-c2ccc(NC(=O)CCCCC(=O)Nc3ccc(-c4c5c(nc6ccc7ccccc7c46)CC(C)(C)CC5=O)cc3)cc2)C1 | > 100 | – | > 100 | > 100 | > 100 | > 100 | > 100 | > 100 | > 100 | > 100 | > 100 | > 100 µM | > 100 | > 100 µM | > 100 | > 100 | – | > 100 | > 100 | > 100 |
| c1ccc(-c2cc(-c3cc(-c4ccccc4)n(-c4ccccc4)n3)nn2-c2ccccc2)cc1 | – | > 100 | > 100 | > 100 | > 100 | > 100 | > 100 | > 100 | > 100 | > 100 | > 100 | > 100 µM | > 100 | > 100 µM | > 100 | – | > 100 | > 100 | – | > 100 |
| C=C(Cl)C(Cl)(CBr)CCC(Cl)C(C)(C)Cl (stereo not given) | 28 | 3.88 | 2.83 | 20.1 | 61 | 3.34 | 29.3 | 26.3 | 53 | – | 7.55 | 7 µM | 11.8 | 70.8 µM | 1.32 | 0.872 | 10.9 | 2.71 | – | 1.35 |
| COc1nc(=O)n(C2CC(N=[N+]=[N-])C(CO)O2)cc1C (stereo not given) | > 100 | > 100 | > 100 | > 100 | > 100 | > 100 | > 100 | > 100 | > 100 | > 100 | > 100 | > 100 µM | > 100 | – | > 100 | – | – | > 100 | > 100 | > 100 |
| CCC(=O)NCCc1c[nH]c2ccc(OC)cc12 | > 100 | > 100 | > 100 | > 100 | > 100 | > 100 | > 100 | > 100 | > 100 | > 100 | > 100 | > 100 µM | > 100 | > 100 µM | > 100 | > 100 | > 100 | > 100 | – | > 100 |
| C[C@@H]1OC(=O)C[C@H]2CC(=O)N(CCc3cn(S(=O)(=O)C(F)(F)F)c4ccccc34)C[C@@H]21 | – | > 100 | > 100 | > 100 | – | > 100 | > 100 | > 100 | > 100 | > 100 | > 100 | > 100 µM | > 100 | > 100 µM | > 100 | > 100 | > 100 | > 100 | – | – |
| N#Cc1c(-c2ccc(Cl)cc2)c(C#N)c(=O)n(NS(=O)(=O)c2ccccc2)c1-c1ccccc1 | > 25 | > 25 | > 25 | > 25 | – | – | > 25 | – | > 25 | > 25 | > 25 | > 25 µM | – | > 25 µM | > 25 | > 25 | > 25 | > 25 | > 25 | > 25 |
| O=C(O)c1ccccc1/C=N\NC1=NCCN1 | > 100 | > 100 | > 100 | > 100 | > 100 | > 100 | > 100 | > 100 | > 100 | > 100 | > 100 | > 100 µM | > 100 | > 100 µM | > 100 | > 100 | – | > 100 | > 100 | > 100 |
| COC(=O)C1(Cc2cccc(Cl)c2)CCCCCCN1C(=O)c1ccccc1 (stereo not given) | 32.8 | 50.6 | 33.8 | 40.8 | 48.8 | 20.4 | 59.8 | 45.5 | 32.1 | 28.5 | 30.4 | 31.2 µM | 54.1 | 42.8 µM | 26.3 | 32.2 | – | 29.5 | 34.3 | – |
| CCCCCCCSCC(O)COC(c1ccccc1)(c1ccccc1)c1ccccc1 (stereo not given) | > 100 | > 100 | > 100 | > 100 | 85 | > 100 | > 100 | > 100 | > 100 | > 100 | > 100 | > 100 µM | > 100 | > 100 µM | > 100 | 87.3 | – | > 100 | 63.9 | > 100 |
| O=C(/C=C/c1ccc(O)c(O)c1)OCCOC(=O)/C=C/c1ccc(O)c(O)c1 | 93.3 | > 100 | > 100 | > 100 | 96.3 | 39 | 63.2 | > 100 | 44.9 | 35.1 | 41.6 | > 100 µM | > 100 | 55.5 µM | > 100 | > 100 | 51.9 | > 100 | – | 52.6 |
| Cc1cc2c(-c3ccccc3)cc(=O)[nH]c2cc1N | > 100 | > 100 | > 100 | > 100 | > 100 | > 100 | > 100 | > 100 | > 100 | > 100 | > 100 | > 100 µM | > 100 | – | > 100 | > 100 | > 100 | – | – | > 100 |
| COc1ccc(C)cc1NC(=S)N/N=C/c1ccc(SC)cc1 | > 100 | > 100 | – | > 100 | – | > 100 | > 100 | > 100 | > 100 | > 100 | > 100 | > 100 µM | > 100 | 91.4 µM | > 100 | 76.3 | > 100 | – | > 100 | 89.9 |
| COC(=O)C1=C(O)C(C(=O)OC)[C@]2(O)[C@H](C(=O)OC)[C@H]1C[C@@H](c1ccc(OC)cc1)[C@H]2C(=O)OC (stereo not given in full) | 78.5 | 78.2 | 50 | > 100 | > 100 | – | > 100 | > 100 | 68.1 | 25.8 | 40.7 | 79.8 µM | > 100 | 65.5 µM | 47.3 | 57.4 | 42 | > 100 | – | > 100 |
| CC(=O)c1cccc(NC2C(N)C(NC(=O)N(C)C)(C(C)O)C(C)(O)C2(O)COC(=O)c2c(C)cccc2O)c1 (stereo not given) | – | – | – | 0.012 | 0.00141 | 0.262 | 0.15 | – | 0.835 | 0.119 | 0.0135 | 0.0992 µM and 0.936 µM | 0.591 | 0.0808 µM and 0.205 µM | 0.0146 | – | – | 0.118 | < 0.001 | < 0.001 |
| CCOC(=O)CCC(NC(=O)OCc1ccccc1)C(=O)NC(CCC(=O)OCC)C(=O)NC(CCC(=O)OCC)C(=O)NC(CCC(=O)OCC)C(=O)NC(CCC(=O)OCC)C(=O)OCC (stereo not given) | > 100 | > 100 | > 100 | > 100 | – | – | – | > 100 | > 100 | > 100 | > 100 | – | > 100 | > 100 µM | > 100 | > 100 | > 100 | > 100 | – | – |
| CCOC(=O)c1c(SCCO)n(-c2ccccc2)c(=S)n(-c2ccccc2)c1=O | > 100 | > 100 | > 100 | > 100 | > 100 | > 100 | > 100 | > 100 | > 100 | > 100 | > 100 | > 100 µM | > 100 | > 100 µM | > 100 | > 100 | – | > 100 | > 100 | – |
| C[C@@H]1CCC2[C@@H](C)C(=O)O[C@@H]3C4C[C@@H]1[C@@]23OO[C@@]4(C)O (stereo not given in full) | 62.7 | > 100 | > 100 | > 100 | – | > 100 | > 100 | > 100 | > 100 | > 100 | > 100 | > 100 µM | > 100 | – | > 100 | > 100 | > 100 | > 100 | – | > 100 |
